From patent publication US7618988B2, “Use of substituted aminomethyl chromans” (Merck Patentgesellschaft, priority 2001, dated 2009)

Key:
dopamine D4 receptors = dopamine D4 receptors (Homo sapiens, UniProt P21917); experiment: dopamine D4 receptor radioligand binding; details: in vitro radioligand binding
Text: (§1) The affinity to the 5-HT1A receptor can be determined in vitro by radioligand binding experiments according to Cossery J M et al. (Eur. J. Pharmacol. 1987; 140: 143-155). The functional agonistic properties at the 5HT1A receptor can be determined in vitro in the GTP-gamma-S test (Newman-Tancredi A et al., Eur. J. Pharmacol.1996; 307: 107-111). A standard in vivo animal model to test for the 5HT1A agonistic properties is the ultrasonic vocalization test in rats (e.g. deFry J et al., Eur. J. Pharmacol. 1993; 249: 331-339; Sanchez C, Behav. Pharmacol. 1993; 4: 269-277). The affinity for dopamine D4 receptors can be determined in vitro by radioligand binding experiments according to Klokow M et al. (Drug Res. 1986; 36: 197-200).

mutant dystonic hamster = experiment: mutant dystonic hamster; format: in vivo; details: scoring system
Text: A typical animal model is the mutant dystonic hamster according to A. Richter and W. Löscher, Prog. Neurobiol. 1998; 54: 633-677. In this genetically dystonic hamsters, dystonic attacks are provoked by taking the animal from the home cage and placing it on a balance. The dystonic syndrome consists of a sequence of abnormal movements, and the severity of the single symptoms is rated by a scoring system.

[1] = system: neuroleptics sensitized monkey; experiment: neuroleptics sensitized monkey; format: in vivo; details: haloperidol challenge, scoring system
Text: Another typical animal model is the neuroleptics sensitized monkey according to D. E. Casey, Psychopharmacology, 1996; 124: 134-140. Monkeys treated repeatedly with conventional neuroleptics are highly sensitive to a subsequent challenge dose of neuroleptic drugs. When challenged, the monkeys immediately show extrapyramidal motor side effects such as dystonia, dyskinesias, akathisia, and bradykinesia which are rated by a scoring system. The conventional neuroleptic drug haloperidol is given as a challenge.

5-HT1A receptor = 5-HT1A receptor (UniProt P19327); experiment: 5-HT1A receptor radioligand binding; details: in vitro radioligand binding; read-out: IC50, binding to 5HT1A receptors
Text: as §1

[2] = system: reserpinized rat or mouse; experiment: reserpinized rat or mouse (akinesia); format: in vivo; details: 24 h after reserpine
Experimental: A typical animal model is the reserpinized rat or mouse (e.g. M. S. Starr and B. S. Starr, J. Neural Transm.—Park. Dis. Dement. Sect., 1994; 7: 133-142; M. Gossel et al., J. Neural Transm.—Park. Dis. Dement. Sect., 1995; 10: 27-39; N. R. Hughes et al., Mov. Disord., 1998; 13: 228-233). Reserpine is a potent depleter of monoamines and produces nearly complete akinesia in both species. Prominent 24 h after application, the distance travelled and the time active is nearly zero as measured in conventional activity meters.

rats = experiment: neuroleptics-induced muscle rigidity in rats; format: in vivo, rat; details: enhanced by haloperidol
Text: A typical animal model is neuroleptics-induced muscle rigidity in rats according to S. Wolfarth et al., Arch. Pharmacol. 1992; 345: 209-212. Rats are challenged with the conventional neuroleptic drug haloperidol which enhances muscle tone. Muscle tone is electromechanically measured as the resistence to passive flexion and extension of the hind limb.

[3] = system: patients with Huntington's disease; experiment: trial in patients with Huntington's disease; format: in vivo, human; details: add on, 2.5 to 20 mg b.i.d.
Experimental: A typical trial to establish the effect of the compounds according to the invention on chorea, voluntary motor performance, and functional disability in patients with Huntington's disease encompasses 32 genetically diagnosed patients. (2R,4R)-2-({[5-(4-fluorophenyl)-pyridin-3ylmethyl]-amino}-methyl)-chroman-4-ol monohydrochloride hemihydrate or placebo is administered as “add on” to the conventional treatment, which is maintained unchanged during the whole study. The dose of blinded medication is titrated over a period of 3 weeks in a range from 2.5 to 20 mg b.i.d. Then the medication is held constant for 1 week. Assessments are performed in the week before and at the last day of the trial. Chorea is scored using the abnormal involuntary movement scale (AIMS, W. Guy, in: ECDEU assessment manual. Rockville Md.: US dept. of health, education and welfare, 1976: 534-537), the unified Huntington's disease rating scale (UHDRS, Huntington study group, 1996, Movement Disord, 11: 13642), and judgement of video recordings. Voluntary motor performance is assessed using the UHDRS motor scale. Patients and their partners complete a questionnaire regarding functional disability.

[4] = system: patients with cervical dystonia (spasmodic torticollis); experiment: double-blind study in cervical dystonia (TWSTRS); format: in vivo, human; details: 2.5 mg to 20 mg b.i.d.
cataleptic rat = experiment: reversal of catalepsy in rats; format: in vivo; details: Rattus norvegicus, sc, subcutaneous, read-out: ED50 (calculated dose to reverse catalepsy by 50%)
Experimental: R represents hydrogen or a hydroxyl protecting group, and their optical isomers and pharmaceutically acceptable salts, in particular 2-({[5-(4-fluorophenyl)-pyridin-3ylmethyl]-amino}-methyl)-chroman-4-ol or an optical isomer or a physiologically acceptable salt or solvate thereof, excert an extraordinary potency in reversing catalepsy. Extrapyramidal motor side effects in e.g. rodents are measured by the ability of a drug to induce catalepsy. Catalepsy is defined as a state where an animal continues to remain in an unnormal (nonphysiological ‘uncomfortable’) posture for a long time (e.g.: M. E. Stanley and S. D. Glick, Neuropharmacology, 1996; 15: 393-394; C. J. E. Niemegeers and P. Janssen, Life Sci., 1979, […]). For example, if a hindpaw of a rat is placed on an elevated level, e.g. a platform elevated 3 cm above ground level, a normal rat immediately withdraws the hindpaw from the platform to the ground level. A cataleptic rat remains in this unnatural posture even for minutes.

Pietrain pig = experiment: Campus Syndrome in the Pietrain pig (tremor); details: in vivo
Text: Typical genetic models in mutant animals are the Campus Syndrome in the Pietrain pig according to A. Richter et al. (Exp. Neurology, 1995; 134: 205-213) or the Weaver mutant mouse according to J. R. Simon and B. Ghetti (Mol. Neurobiol., 1994; 9: 183-189). In the Campus Syndrome model, these mutant pigs show a high-frequency tremor when standing and during locomotion, but not while lying at rest. Assessment of tremor is made by accelerometric recording. In the Weaver mutant mouse, degenerative cerebellar atrophy is […] in association with tremor, gait instability, and toppling over the sides after a few steps.

Chain of dopamine D4 receptors (P21917 whole entry): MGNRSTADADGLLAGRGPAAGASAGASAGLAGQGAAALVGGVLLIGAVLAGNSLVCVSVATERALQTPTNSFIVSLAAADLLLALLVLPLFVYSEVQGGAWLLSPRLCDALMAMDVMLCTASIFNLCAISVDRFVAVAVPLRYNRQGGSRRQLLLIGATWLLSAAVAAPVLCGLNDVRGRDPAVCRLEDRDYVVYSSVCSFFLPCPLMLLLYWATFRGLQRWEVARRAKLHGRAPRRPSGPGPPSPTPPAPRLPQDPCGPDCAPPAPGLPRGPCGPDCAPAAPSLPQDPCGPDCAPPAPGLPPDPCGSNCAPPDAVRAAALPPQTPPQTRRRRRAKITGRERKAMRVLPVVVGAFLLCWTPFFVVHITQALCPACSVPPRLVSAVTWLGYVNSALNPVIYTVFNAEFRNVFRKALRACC

O[C@@H]1C[C@H](CNCc2cncc(-c3ccc(F)cc3)c2)Oc2ccccc21 [(2R,4R)-2-({[5-(4-fluorophenyl)-pyridin-3ylmethyl]-amino}-methyl)-chroman-4-ol]
IC50 (dopamine D4 receptors): 12 nM | severity of dystonic symptoms (mutant dystonic hamster): dose-dependently reduce the severity of dystonic symptoms | extrapyramidal motor side effects [1]: dose-dependently reduce the extrapyramidal motor side effects | IC50 (5-HT1A receptor): 10 nM | akinesia (distance travelled and time active) [2]: dose-dependently reduce akinesia | muscle tone (rats): decrease the muscle tone enhanced by haloperidol | voluntary and involuntary motor performance [3]: significant improvement of voluntary and involuntary motor performance | TWSTRS scores [4]: significant improvement | ED50 (cataleptic rat): ~2 mg/kg | tremor when standing and during locomotion (Pietrain pig): reduce disabling tremor when standing and during locomotion
